Read-outs that look alike come from different tables or passages of the source.
System: iCell cardiomyocytes (human iPSC-derived cardiomyocytes)
Assay: Intracellular Ca2+ flux / beating parameters in iCell cardiomyocytes (FLIPR tetra), 90 min or 24 h
Assay type: cell-based
Details: Homo sapiens, Cardiomyocyte, 0.00 µM = 100.00; for activity at 0.1 µM: 0.10 µM
Summary of the method: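 PODs were defined as the concentration crossing one SD of the vehicle-control means (0.5% DMSO) on four-parameter logistic fits of Ca2+ trace metrics (peak height, frequency, peak-spacing CV, decay/rise ratio). Traces came from 100 s, 8 Hz FLIPR reads at 37 °C on calcium-dye-loaded iCell cardiomyocytes. Before reading, cells were treated for 90 min or 24 h from 5× chemical plates spanning 0.05–500 µM, in triplicate.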

[1] = 1.5 h, read-out: cm.amp.avg.90min
[2] = 1.5 h, read-out: cm.amp.cv.90min
[3] = 1.5 h, read-out: cm.decay.rise.90min
[4] = 1.5 h, read-out: cm.spacing.cv.90min
[5] = 24 h, read-out: cm.amp.avg.24hrs
[6] = 24 h, read-out: cm.amp.cv.24hrs
[7] = 24 h, read-out: cm.decay.rise.24hrs
[8] = 24 h, read-out: cm.spacing.cv.24hrs

Compound: Clc1ccc(-c2ccccc2)cc1 [PCB3]
- activity at 0.01 µM [1]: 98.5%
- activity at 0.01 µM [2]: 109%
- activity at 0.01 µM (1.5 h, read-out: cm.bpm.90min): 95.3%
- activity at 0.01 µM [3]: 98.9%
- activity at 0.01 µM [4]: 124%
- activity at 0.1 µM [1]: 104%
- activity at 0.1 µM [2]: 102%
- activity at 0.1 µM (1.5 h, read-out: cm.bpm.90min): 96.5%
- activity at 0.1 µM [3]: 99.5%
- activity at 0.1 µM [4]: 116%
- activity at 1 µM [1]: 99.9%
- activity at 1 µM [2]: 123%
- activity at 1 µM (1.5 h, read-out: cm.bpm.90min): 96.5%
- activity at 1 µM [3]: 96.1%
- activity at 1 µM [4]: 130%
- activity at 10 µM [1]: 99.5%
- activity at 10 µM [2]: 115%
- activity at 10 µM (1.5 h, read-out: cm.bpm.90min): 103%
- activity at 10 µM [3]: 98.8%
- activity at 10 µM [4]: 121%
- activity at 100 µM [1]: 81.2%
- activity at 100 µM [2]: 180%
- activity at 100 µM (1.5 h, read-out: cm.bpm.90min): 193%
- activity at 100 µM [3]: 99.9%
- activity at 100 µM [4]: 133%
- activity at 0.01 µM [5]: 91.3%
- activity at 0.01 µM [6]: 119%
- activity at 0.01 µM (24 h, read-out: cm.bpm.24hrs): 103%
- activity at 0.01 µM [7]: 98.3%
- activity at 0.01 µM [8]: 138%
- activity at 0.1 µM [5]: 87.1%
- activity at 0.1 µM [6]: 41.5%
- activity at 0.1 µM (24 h, read-out: cm.bpm.24hrs): 52.5%
- activity at 0.1 µM [7]: 47.1%
- activity at 0.1 µM [8]: 61.2%
- activity at 1 µM [5]: 87.1%
- activity at 1 µM [6]: 146%
- activity at 1 µM (24 h, read-out: cm.bpm.24hrs): 103%
- activity at 1 µM [7]: 104%
- activity at 1 µM [8]: 118%
- activity at 10 µM [5]: 110%
- activity at 10 µM [6]: 106%
- activity at 10 µM (24 h, read-out: cm.bpm.24hrs): 110%
- activity at 10 µM [7]: 98.5%
- activity at 10 µM [8]: 128%
- activity at 100 µM [5]: 0%
- activity at 100 µM [6]: 0%
- activity at 100 µM (24 h, read-out: cm.bpm.24hrs): 0%
- activity at 100 µM [7]: 0%
- activity at 100 µM [8]: 0%

Compound: Oc1cccc(-c2ccc(Cl)cc2)c1 [3'-OH PCB3]
- activity at 0.01 µM [1]: 95.3%
- activity at 0.01 µM [2]: 94.5%
- activity at 0.01 µM (1.5 h, read-out: cm.bpm.90min): 97.8%
- activity at 0.01 µM [3]: 96.7%
- activity at 0.01 µM [4]: 101%
- activity at 0.1 µM [1]: 100%
- activity at 0.1 µM [2]: 80.2%
- activity at 0.1 µM (1.5 h, read-out: cm.bpm.90min): 102%
- activity at 0.1 µM [3]: 97.5%
- activity at 0.1 µM [4]: 106%
- activity at 1 µM [1]: 97.7%
- activity at 1 µM [2]: 92.4%
- activity at 1 µM (1.5 h, read-out: cm.bpm.90min): 105%
- activity at 1 µM [3]: 102%
- activity at 1 µM [4]: 98.3%
- activity at 10 µM [1]: 90.4%
- activity at 10 µM [2]: 103%
- activity at 10 µM (1.5 h, read-out: cm.bpm.90min): 130%
- activity at 10 µM [3]: 97.2%
- activity at 10 µM [4]: 123%
- activity at 100 µM [1]: 0%
- activity at 100 µM [2]: 0%
- activity at 100 µM (1.5 h, read-out: cm.bpm.90min): 0%
- activity at 100 µM [3]: 0%
- activity at 100 µM [4]: 0%
- activity at 0.01 µM [5]: 82.3%
- activity at 0.01 µM [6]: 114%
- activity at 0.01 µM (24 h, read-out: cm.bpm.24hrs): 104%
- activity at 0.01 µM [7]: 102%
- activity at 0.01 µM [8]: 105%
- activity at 0.1 µM [5]: 110%
- activity at 0.1 µM [6]: 78.7%
- activity at 0.1 µM (24 h, read-out: cm.bpm.24hrs): 97.4%
- activity at 0.1 µM [7]: 94.2%
- activity at 0.1 µM [8]: 100%
- activity at 1 µM [5]: 88.2%
- activity at 1 µM [6]: 107%
- activity at 1 µM (24 h, read-out: cm.bpm.24hrs): 99.3%
- activity at 1 µM [7]: 102%
- activity at 1 µM [8]: 97%
- activity at 10 µM [5]: 22%
- activity at 10 µM [6]: 101%
- activity at 10 µM (24 h, read-out: cm.bpm.24hrs): 56.3%
- activity at 10 µM [7]: 44.1%
- activity at 10 µM [8]: 54.5%
- activity at 100 µM [5]: 0%
- activity at 100 µM [6]: 0%
- activity at 100 µM (24 h, read-out: cm.bpm.24hrs): 0%
- activity at 100 µM [7]: 0%
- activity at 100 µM [8]: 0%
